IC50 data for 12 molecules are collected here from BindingDB's records for doi:10.1021/cb700200w (Novartis, 2008).

For assay [1], the target named is Cyclin-dependent kinase/G2/mitotic-specific cyclin- 1 (Homo sapiens, UniProt P06493). The experiment in a line: Z-LYTE Enzymatic Kinase Assay. How it is done: Enzyme activity was assayed using Z-LYTE Enzymatic Kinase Assay format (Invitrogen Corp., Carlsbad, CA) in the SelectScreen Kinase Profiling Service (Invitrogen Discovery Sciences, Madison, WI).
The next assay concerns the target T1, Aurora kinase A (Homo sapiens, UniProt O14965).
T1 sequence (O14965 whole entry): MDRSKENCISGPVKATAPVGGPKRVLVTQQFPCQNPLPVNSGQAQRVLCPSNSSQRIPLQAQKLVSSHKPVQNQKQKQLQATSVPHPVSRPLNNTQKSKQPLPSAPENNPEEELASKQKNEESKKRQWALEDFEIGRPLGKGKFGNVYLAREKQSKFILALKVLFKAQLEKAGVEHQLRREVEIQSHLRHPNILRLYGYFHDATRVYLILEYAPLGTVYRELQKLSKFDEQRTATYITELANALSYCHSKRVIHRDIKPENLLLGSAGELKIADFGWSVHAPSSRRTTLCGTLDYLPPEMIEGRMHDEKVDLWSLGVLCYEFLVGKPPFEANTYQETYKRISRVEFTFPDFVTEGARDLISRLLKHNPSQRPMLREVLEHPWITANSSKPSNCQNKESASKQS
The experiment in a line: Aurora Kinase SPA Assay. How it is done: The biochemical activity of compounds was determined by incubation with Aurora A and substrates in the presence ATP/[gamma-33P] ATP. After incubation, the reaction was stopped and the phosphorylated substrate was separated from nonincorporated radioactive ATP using SPA beads (Amersham Pharmacia Biotech), counted using TopCount (Packard) to measure substrate-incorporated phosphate.

Some results are limits rather than exact numbers.

Cyclin-dependent kinase/G2/mitotic-specific cyclin- 1, sequence (P06493 whole entry): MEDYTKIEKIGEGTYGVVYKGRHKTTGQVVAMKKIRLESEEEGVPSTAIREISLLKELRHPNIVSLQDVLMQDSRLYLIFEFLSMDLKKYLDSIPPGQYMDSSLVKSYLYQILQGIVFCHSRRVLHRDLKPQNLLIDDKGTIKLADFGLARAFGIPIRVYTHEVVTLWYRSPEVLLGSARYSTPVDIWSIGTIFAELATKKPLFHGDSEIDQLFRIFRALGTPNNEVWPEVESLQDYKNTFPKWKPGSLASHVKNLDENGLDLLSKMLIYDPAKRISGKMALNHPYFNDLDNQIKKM
Cyclin-dependent kinase/G2/mitotic-specific cyclin- 1, sequence (P14635 whole entry, further chain): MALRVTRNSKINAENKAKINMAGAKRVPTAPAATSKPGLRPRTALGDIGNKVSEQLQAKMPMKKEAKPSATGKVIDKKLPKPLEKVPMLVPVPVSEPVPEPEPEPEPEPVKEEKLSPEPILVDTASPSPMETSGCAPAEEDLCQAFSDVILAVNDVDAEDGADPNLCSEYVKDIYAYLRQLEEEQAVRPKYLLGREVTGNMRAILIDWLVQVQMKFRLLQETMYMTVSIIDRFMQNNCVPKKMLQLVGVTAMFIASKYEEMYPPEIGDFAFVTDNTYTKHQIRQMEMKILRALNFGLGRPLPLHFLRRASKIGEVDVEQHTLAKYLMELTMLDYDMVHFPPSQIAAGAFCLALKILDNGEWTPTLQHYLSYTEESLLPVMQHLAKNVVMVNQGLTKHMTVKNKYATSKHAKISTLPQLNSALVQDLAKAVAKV

Consider `CNC(=O)c1ccc(Nc2ncc(Br)s2)cc1` [4-[(5-bromo-1,3-thiazol-2-yl)amino]-N-methylbenzamide], for which, in assay [1], 4.27 µM corresponded to half-maximal inhibition (IC50). This lies in the single-digit micromolar range.
For `O=C(O)c1ccc(Nc2ncc(Br)s2)cc1` [4-[(5-bromo-1,3-thiazol-2-yl)amino]benzoic acid], the IC50 against Aurora kinase A (pH 7, 22 °C) was 0.079 µM; in assay [1], > 10 µM.
On the same counts, the results for `Fc1ccc(Nc2ncc(Br)s2)cc1` [5-bromo-N-(4-fluorophenyl)-1,3-thiazol-2-amine] are 0.4 µM and > 10 µM.
For the molecule `Fc1ccc(Nc2nccs2)cc1` [N-(4-fluorophenyl)-1,3-thiazol-2-amine], the IC50 at Aurora kinase A (pH 7, 22 °C) was > 10 µM.
Regarding `Fc1ccc(Nc2ncc(I)s2)cc1` [N-(4-fluorophenyl)-5-iodo-1,3-thiazol-2-amine], the IC50 against Aurora kinase A (pH 7, 22 °C) came out at 0.5 µM.
As to `CC(=O)Nc1ncc(Br)s1` [N-(5-bromo-1,3-thiazol-2-yl)acetamide], the IC50 at Aurora kinase A was > 10 µM.
The same measure, in the same setting: next, `O=C(Nc1ncc(Br)s1)c1ccccc1` [N-(5-bromo-1,3-thiazol-2-yl)benzamide]: 5.5 µM.
Still for that read-out and setting: next, `FC(F)(F)c1cc(Nc2ncc(Br)s2)cc(C(F)(F)F)c1` [N-[3,5-bis(trifluoromethyl)phenyl]-5-bromo-1,3-thiazol-2-amine]: > 10 µM.
On Aurora kinase A (pH 7, 22 °C), `CC(=O)Nc1ccc(Nc2ncc(Br)s2)cc1` [N-{4-[(5-bromo-1,3-thiazol-2-yl)amino]phenyl}acetamide] gave an IC50 of 0.36 µM.
Still for that read-out and setting: next, `O=C(Nc1ccc(Nc2ncc(Br)s2)cc1)c1ccccc1` [N-{4-[(5-bromo-1,3-thiazol-2-yl)amino]phenyl}benzamide]: 9.2 µM.
Regarding `CCOC(=O)c1cccc(Nc2ncc(Br)s2)c1` [ethyl 3-[(5-bromo-1,3-thiazol-2-yl)amino]benzoate], the IC50 against Aurora kinase A came to 2.25 µM.
The molecule `CCOC(=O)c1ccc(Nc2ncc(Br)s2)cc1` [ethyl 4-[(5-bromo-1,3-thiazol-2-yl)amino]benzoate] yielded an IC50 on Aurora kinase A (pH 7, 22 °C) of 5.7 µM. That is a single-digit micromolar value.

By IC50 is commonly meant the midpoint of a concentration-inhibition curve.
